Source: PubChem BioAssay AID328 (DTP/NCI, 2004)
Several values for one entry are separate records, joined by “and”; a condition that tells them apart may be missing. Equal entries are not always repeated. Toxic doses and inconclusive results are not listed. How the source made its calls: active means survival T/C of 150% or more; inactive means T/C below 125% in these data.

Tested on: BDF1 mice, P388 leukemia ip, median survival T/C
Assay: NCI In Vivo Anticancer Drug Screen. Data for tumor model P388 Leukemia (intraperitoneal) in B6D2F1 (BDF1) mice
Details: endpoint: median survival time, higher = longer survival
Summary of the method: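 Compound-treated tumour-bearing mice were compared with vehicle-treated controls. Survival was recorded, and the value is the treated-group measurement divided by the control-group measurement (T/C).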

[1] = dose: 50.0 mg/kg/injection, schedule: Q01DX009 (ip), vehicle: Klucel (hydroxypropylcellulose) (HPC)
[2] = dose: 100.0 mg/kg/injection, schedule: Q01DX009 (ip), vehicle: Klucel (hydroxypropylcellulose) (HPC)
[3] = dose: 100.0 mg/kg/injection, schedule: Q04DX003 (ip), vehicle: Klucel (hydroxypropylcellulose) (HPC)
[4] = dose: 200.0 mg/kg/injection, schedule: Q04DX003 (ip), vehicle: Klucel (hydroxypropylcellulose) (HPC)
[5] = dose: 50.0 mg/kg/injection, schedule: Q01DX009 (ip), vehicle: saline
[6] = dose: 50.0 mg/kg/injection, schedule: Q01DX009 (ip), vehicle: saline with Tween-80
[7] = dose: 100.0 mg/kg/injection, schedule: Q01DX009 (ip), vehicle: saline with Tween-80
[8] = dose: 200.0 mg/kg/injection, schedule: Q01DX009 (ip), vehicle: saline with Tween-80
[9] = dose: 200.0 mg/kg/injection, schedule: Q01DX009 (ip), vehicle: Klucel (hydroxypropylcellulose) (HPC)
[10] = dose: 400.0 mg/kg/injection, schedule: Q04DX003 (ip), vehicle: Klucel (hydroxypropylcellulose) (HPC)
[11] = dose: 12.5 mg/kg/injection, schedule: Q04DX003 (ip), vehicle: saline
[12] = dose: 25.0 mg/kg/injection, schedule: Q04DX003 (ip), vehicle: saline
[13] = dose: 12.5 mg/kg/injection, schedule: Q01DX009 (ip), vehicle: saline
[14] = dose: 50.0 mg/kg/injection, schedule: Q04DX003 (ip), vehicle: saline
[15] = dose: 100.0 mg/kg/injection, schedule: Q04DX003 (ip), vehicle: saline
[16] = dose: 200.0 mg/kg/injection, schedule: Q04DX003 (ip), vehicle: saline
[17] = dose: 25.0 mg/kg/injection, schedule: Q01DX009 (ip), vehicle: saline with Tween-80
[18] = dose: 100.0 mg/kg/injection, schedule: Q04DX003 (ip), vehicle: saline with Tween-80
[19] = dose: 200.0 mg/kg/injection, schedule: Q04DX003 (ip), vehicle: saline with Tween-80
[20] = dose: 400.0 mg/kg/injection, schedule: Q04DX003 (ip), vehicle: saline with Tween-80
[21] = dose: 400.0 mg/kg/injection, schedule: Q01DX009 (ip), vehicle: saline with Tween-80

Measured: T/C

O=S1(=O)OCc2ccccc21
inactive: [1] 108 % of control | dose: 50.0 mg/kg/injection, schedule: Q04DX003 (ip), vehicle: Klucel (hydroxypropylcellulose) (HPC) 86 % of control | [2] 91 % of control | [3] 100 % of control and 104 % of control | [4] 92 % of control and 95 % of control

CCN(CC)C(=O)COc1cc2c(O)c3c(O)c(C)c4c(c13)C(=O)C(C)(OC=CC(OC)C(C)C(OC(C)=O)C(C)C(O)C(C)C(O)C(C)C=CC=C(C)C(=O)N2)O4 (centres undefined)
inactive: [5] 109 % of control | dose: 100.0 mg/kg/injection, schedule: Q01DX009 (ip), vehicle: saline 109 % of control | dose: 200.0 mg/kg/injection, schedule: Q01DX009 (ip), vehicle: saline 123 % of control

COC(=O)C1(C)CCCC2(C)C1CCC13C=C(C(C)C)C(CC1C(=O)O)CC23 (centres undefined)
inactive: [6] 95 % of control | [7] 91 % of control | [8] 95 % of control

CSC(=S)NNC(=O)c1cccc([N+](=O)[O-])c1
inactive: dose: 6.25 mg/kg/injection, schedule: Q04DX003 (ip), vehicle: saline sonified 110 % of control | dose: 12.5 mg/kg/injection, schedule: Q04DX003 (ip), vehicle: saline sonified 105 % of control | dose: 25.0 mg/kg/injection, schedule: Q04DX003 (ip), vehicle: saline sonified 100 % of control

CCOC(=O)c1cc(/C=C/c2ccccc2)[nH]c(=O)c1C#N
inactive: dose: 25.0 mg/kg/injection, schedule: Q01DX009 (ip), vehicle: Klucel (hydroxypropylcellulose) (HPC) 91 % of control | [1] 91 % of control | [2] 95 % of control | [3] 95 % of control | [9] 92 % of control | [4] 104 % of control | [10] 104 % of control

SC1(S)CN2CCC1CC2
inactive: dose: 6.25 mg/kg/injection, schedule: Q04DX003 (ip), vehicle: saline 105 % of control | [11] 105 % of control | [12] 105 % of control

CC(=O)Nc1cc(C)c(C)cc1[N+](=O)[O-]
inactive: [2] 95 % of control | [3] 104 % of control | [9] 109 % of control | [4] 90 % of control | dose: 400.0 mg/kg/injection, schedule: Q01DX009 (ip), vehicle: Klucel (hydroxypropylcellulose) (HPC) 95 % of control | [10] 86 % of control

COc1ccc(Oc2nc(=O)n3ccccc3n2)cc1
inactive: [6] 93 % of control | [7] 90 % of control | [8] 88 % of control

COc1ccc(C)cc1NN
inactive: [13] 100 % of control | [5] 100 % of control | [14] 109 % of control | [15] 104 % of control | [16] 95 % of control

CCN(CC)CCNC(=S)N/N=C(C)\C(C)=N/NC(=S)NCCN(CC)CC
inactive: dose: 6.25 mg/kg/injection, schedule: Q01DX009 (ip), vehicle: saline 105 % of control | [13] 105 % of control

Cn1nnnc1N/N=C(\Br)c1ccccc1
inactive: [17] 110 % of control | [6] 105 % of control | [7] 120 % of control | [18] 104 % of control | [8] 120 % of control | [19] 95 % of control | [20] 90 % of control

NCc1cc(=O)[nH]o1
inactive: dose: 2.5 mg/kg/injection, schedule: Q01DX005 (ip), vehicle: saline 98 % of control | dose: 5.0 mg/kg/injection, schedule: Q01DX005 (ip), vehicle: saline 106 % of control

CCOC(=O)C1=S=C(SC)N(C)C1=O
inactive: [6] 106 % of control and 115 % of control | [7] 103 % of control and 116 % of control

COc1cccc(NN)c1
inactive: dose: 25.0 mg/kg/injection, schedule: Q01DX009 (ip), vehicle: saline 113 % of control | [5] 104 % of control | [14] 100 % of control | [15] 91 % of control

N=C(N)N1CCNc2ccccc2C1
inactive: [18] 99 % of control

COc1cc2c(cc1C(C)C)CCC1C(C)(C#N)CCCC21C (centres undefined)
inactive: [7] 110 % of control | [8] 110 % of control | [21] 95 % of control

CC(=O)Nc1nc(C)c(CCC#N)c(=O)[nH]1
inactive: [15] 86 % of control | [16] 90 % of control | dose: 400.0 mg/kg/injection, schedule: Q04DX003 (ip), vehicle: saline 86 % of control

CC(C)=CCC/C(C)=C\CCl
inactive: [17] 105 % of control | dose: 37.5 mg/kg/injection, schedule: Q01DX009 (ip), vehicle: saline with Tween-80 99 % of control | [6] 121 % of control | dose: 50.0 mg/kg/injection, schedule: Q04DX003 (ip), vehicle: saline with Tween-80 107 % of control | dose: 75.0 mg/kg/injection, schedule: Q01DX009 (ip), vehicle: saline with Tween-80 122 % of control | [7] 105 % of control | [18] 111 % of control

CCNc1c([N+](=O)[O-])cc(S(=O)(=O)O)cc1[N+](=O)[O-]
inactive: dose: 50.0 mg/kg/injection, schedule: Q04DX003 (ip), vehicle: saline sonified 100 % of control | dose: 100.0 mg/kg/injection, schedule: Q04DX003 (ip), vehicle: saline sonified 104 % of control | dose: 200.0 mg/kg/injection, schedule: Q04DX003 (ip), vehicle: saline sonified 104 % of control

COc1ccc(CCNC(=O)/C=C\C(=O)O)cc1OC
inactive: [7] 95 % of control | [8] 95 % of control | [21] 100 % of control

c1ccc2c[n+]3cc4ccccc4cc3cc2c1
inactive: dose: 8.75 mg/kg/injection, schedule: Q01DX009 (ip), vehicle: saline 95 % of control | [11] 91 % of control | dose: 17.5 mg/kg/injection, schedule: Q01DX009 (ip), vehicle: saline 100 % of control | [12] 100 % of control

CC(C)n1cnc2c(Cl)ncnc21
inactive: [7] 100 % of control | [18] 104 % of control | [19] 95 % of control | [20] 90 % of control

CCOC(=O)C(C)C(OCC)OCC (centres undefined)
inactive: [7] 95 % of control | [18] 100 % of control | [8] 109 % of control | [19] 91 % of control | [21] 109 % of control | [20] 100 % of control
